Laboratory results: US20110200558A1, “Treatment or Prevention of Hepatitis C with Immunomodulator Compounds” (priority 2008, published 2011)
Entries after “also recorded” stand apart in the source; their conditions may differ. Read-outs that look alike come from different tables or passages of the source.

How the values were obtained:
HCV [1] = conditions: within 5 days of therapy; cited from earlier work
HCV [2] = conditions: cited from earlier work
HCV [3] = conditions: higher doses (500-1500 mg/day); cited from earlier work
HCV genotype 1 [4] = conditions: cited from earlier work
HCV genotype 1 [5] = conditions: 1500-mg twice-daily, 14 days, treatment-naive; cited from earlier work
HCV genotype 1 [6] = conditions: 400 mg thrice daily for 14 days with pegylated interferon alfa-2b, previous nonresponders; cited from earlier work
HCV genotype 1 [7] = conditions: 400 mg thrice daily, 14 days monotherapy, nonresponders to pegylated interferon alfa; cited from earlier work
STAT-3 = conditions: cited from earlier work
herpes virus HSV-2 = conditions: guinea pigs infected with herpes virus HSV-2; cited from earlier work
bone marrow cells = conditions: cited from earlier work
sheep red blood cells = conditions: immunization with sheep red blood cells; cited from earlier work
neopterin = assay: Phase 2a dose ranging study of SCV-07: plasma biomarker neopterin; assay type: in vivo, human; conditions: Cohort 3, 1.0 mg/kg (interim); single responding subject
Description: (§1) Here we describe interim results from a phase 2a, proof of principle, multicenter, randomized, controlled, single-blind dose ranging study, which is evaluating the safety and antiviral effect of SCV-07 in non-cirrhotic subjects with genotype 1 chronic HCV infection. Subjects enrolled in the study must have relapsed to previous treatment with PEGylated interferon and ribavirin; therefore any change in HCV viral load of greater than 0.5 log could be considered a significant response.
(§2) Subjects are treated with 7 daily injections of SCV-07 (8 subjects per cohort) or saline (2 per cohort). […] Due to this apparent late response, a 30-day follow up visit was added for Cohort 3. Of the 4 subjects in this Cohort who have reached the 30-day visit, one has responded with a 1.2-log drop in HCV along with an increase in neopterin (see Table1).
A plasma concentration of neopterin above 10 nmol/L represents a “stimulated” immune system. […] Increased levels of neopterin also are correlated with increased sustained viral responses against HCV, and so is very strong evidence for the use of SCV-07 in this disease. The timing of the increase is also of interest.

spleen lymphocytes = conditions: cited from earlier work
HCV [8] = assay: Combination treatment of hepatitis C patients, Examples 2-4; assay type: in vivo, human; conditions: Example 4: 0.1-2.0 mg/kg/day with STAT-C and/or ribavirin and/or pegylated interferon alpha-2b or alpha-2a, up to 48 weeks
Description: Treatment, as in the examples above, results in achieving a sustained virological response (SVR) (which is accepted as cure and used as the efficacy endpoint for FDA approval), of 65-75%. This compares favorably with the current SOC SVR of 45-50%. This improved SVR is achieved in a regimen that has much less toxicity when compared to SOC (interferon sparing).

[9] = system: 5-FU-immune-suppressed animals; conditions: cited from earlier work
thymocyte and lymphocyte = conditions: in vitro; cited from earlier work
[10] = system: Th1 cytokines IFN-g and IL-2, Th2 cytokines IL-4 and IL-10; conditions: cited from earlier work
Pichinde virus = Pichinde virus in guinea pigs; cited from earlier work
[11] = Phase 2a dose ranging study of SCV-07: safety and tolerability; assay type: in vivo, human
Description: as §1, §2
Further clinical investigation into longer treatment duration or addition to other anti-viral agents appears warranted.

[12] = system: Cottontail papilloma virus; conditions: Cottontail papilloma virus in rabbits; cited from earlier work
[13] = system: genotype 1 chronic HCV infection; assay: Phase 2a dose ranging study of SCV-07: HCV viral load; assay type: in vivo, human
Description: as §1, §2

[14] = 1500 mg twice daily for 14 days
[15] = 3000 mg twice daily for 14 days
[16] = 4500 mg twice daily for 14 days

SMILES: CCCCCOc1ccc(NC(=S)NC(=O)c2cccnc2)cc1C(F)(F)F [ACH-806]
- drop in HCV RNA (HCV [1]): 2.38 log

SMILES: COc1ccc2c(O[C@@H]3C[C@H]4C(=O)N[C@]5(C(=O)O)C[C@H]5/C=C\CCCCC[C@H](NC(=O)OC5CCCC5)C(=O)N4C3)cc(-c3csc(NC(C)C)n3)nc2c1 [BILN-2061]
- antiviral activity, HCV genotype 1 (HCV [2]; HCV genotype 1): potent antiviral activity
- virologic response, HCV genotype 2 and 3 patients (HCV [2]; HCV genotype 2 and 3): less pronounced and more variable
- time of viral load reduction (HCV [2]; phase 1): ≤ 48 h

SMILES: CNC(=O)c1c(-c2ccc(F)cc2)oc2cc(N(CCO)S(C)(=O)=O)c(C3CC3)cc12 [HCV-796]
- drop in the HCV RNA viral load (HCV [3]): ~1.2 log

SMILES: CC(C)C(=O)OC[C@@]1(N=[N+]=[N-])O[C@@H](n2ccc(N)nc2=O)[C@H](OC(=O)C(C)C)[C@@H]1OC(=O)C(C)C [R1626]
- Mean HCV viral reduction (HCV genotype 1 [4]; 500 mg twice daily for 14 days): 0.3 log 10
- median HCV viral reduction (HCV genotype 1 [4]; 500 mg twice daily for 14 days): 0.2 log 10
- Mean HCV viral reduction (HCV genotype 1 [4]; [14]): 1.2 log 10
- median HCV viral reduction (HCV genotype 1 [4]; [14]): 0.8 log 10
- Mean HCV viral reduction (HCV genotype 1 [4]; [15]): 2.6 log 10
- median HCV viral reduction (HCV genotype 1 [4]; [15]): 2.7 log 10
- Mean HCV viral reduction (HCV genotype 1 [4]; [16]): 3.7 log 10
- median HCV viral reduction (HCV genotype 1 [4]; [16]): 4.1 log 10
- reduction in HCV RNA (HCV genotype 1 [5]): approximately 1.2 log

SMILES: CC(C)(C)NC(=O)N[C@H](C(=O)N1C[C@H]2[C@@H]([C@H]1C(=O)NC(CC1CCC1)C(=O)C(N)=O)C2(C)C)C(C)(C)C (stereo partly shown) [SCH503034]
- reduction in HCV RNA (HCV genotype 1 [6]): 2.88 log
- drop in HCV RNA from the baseline value (HCV genotype 1 [7]): approximately 2 log

SMILES: N[C@H](CCC(=O)N[C@@H](Cc1c[nH]c2ccccc12)C(=O)O)C(=O)O [SCV-07, γ-D-glutamyl-L-tryptophan]
- STAT-3 dependent signaling / STAT3 activity (STAT-3): inhibition; also recorded: inhibit
- recurrence (herpes virus HSV-2): decreased recurrence
- expression of Thy-1.2 on bone marrow cells (bone marrow cells): stimulates expression
- immunostimulatory effect (sheep red blood cells): strong immunostimulatory effect
- Neopterin (nmol/L) Day 30 (neopterin): 33 nmol/L
- Con-A-induced interleukin-2 (IL-2) production and IL-2 receptor expression by spleen lymphocytes (spleen lymphocytes): increases
- response against HCV (HCV [8]): improved response
- immunostimulatory effect [9]: strong immunostimulatory effect
- Con-A-induced thymocyte and lymphocyte proliferation (thymocyte and lymphocyte): increases
- Th2 cytokines IL-4 and IL-10 [10]: decreasing
- production of the Th1 cytokines IFN-g and IL-2 [10]: increases
- survival (Pichinde virus): increased survival
- SAEs reported ([11]; all 3 dose groups): No SAEs were reported
- discontinuation of treatment due to AEs ([11]; all 3 dose groups): no subject had to discontinue treatment due to AEs
- tolerability ([11]; all 3 dose groups): well tolerated
- changes in ALT from baseline ([11]; any of the subjects): No significant changes
- survival [12]: increased survival
- HCV viral load response ([13]; Cohort 1, 0.01 mg/kg): no responses
- subjects with decrease in viral load and increase in neopterin ([13]; Cohort 2, 0.10 mg/kg, day 14 follow up visit): 2 subjects
- HCV viral load (log10 decrease) Day 30 ([13]; Cohort 3, 1.0 mg/kg (interim), 7 daily injections, single responding subject, 30-day visit): 1.2 log10
- drop in HCV ([13]; Cohort 3, one of 4 subjects at the 30-day visit): 1.2 log
